Measurements published in patent US11903385B1, “1-(butyl(2-hydroxy-3-(naphthalen-1-yloxy)propyl)amino)-3-(naphthalen-2-yloxy)propan-2-ol as an eco-friendly insecticidal agent against Spodoptera littoralis (boisd.)” (KING FAISAL UNIVERSITY, priority 2023, dated 2024).
Values after ≈ are worked out from the molar mass of the structure shown. Where two headings read alike, the source gives them in different places.

Columns and labels:
S. littoralis larvae = experiment: Insecticidal leaf dip bioassay screening; conditions: 72 h; for Toxicity ratio: fenoxycarb's LC50 / the compound's LC50; for LC50: Spodoptera littoralis, foliar
Protocol: Until usage, the stocks were kept in a refrigerator. The target substance test results were noted & the concentrations needed to destroy 50% (LC50) of S. littoralis larvae were calculated. The target compound was employed in five different concentrations, and 0.1% Tween 80 was employed as a surfactant. Castor bean leaf discs (nine centimeters in diameter) were dipped in the concentration under test for ten seconds, then fed to 2th & 4th larvae, which were roughly the same size and housed in glass jars (five lb). Each action was carried out 3 times with ten larvae each. The mortality equalized via Abbott's formula. Calculations of mortality setback line were measurably rummage via probity analysis. […] The mortality results of larval insect were estimated through employing probit analysis through a statistics (LDP-line) equation which estimate the LC50 values with 95% fiducially limits of lower, upper confidence limit and slope.

aquatic insects = conditions: cited from earlier work
[1] = read-out: LC50 (mg/L) at 95%, 2nd instar larvae, after 72 h of treatment
[2] = read-out: LC50 (mg/L) at 95%, 4th instar larvae, after 72 h of treatment

SMILES | Toxicity ratio (S. littoralis larvae; 2nd instar larvae) | Toxicity ratio (S. littoralis larvae; 4th instar larvae) | LC50 (S. littoralis larvae; [1]) | LC50 (S. littoralis larvae; [2]) | LC50 (aquatic insects)
CCOC(=O)NCCOc1ccc(Oc2ccccc2)cc1 [Fenoxycarb] | 1 | 1 | 2.73 mg/L (≈ 9.06 µM) | 9.18 mg/L (≈ 30.5 µM) | –
CCCCN(CC(O)COc1ccc2ccccc2c1)CC(O)COc1cccc2ccccc12 (stereo not drawn) [III, 1-(butyl(2-hydroxy-3-(naphthalen-1-yloxy)propyl)amino)-3-(naphthalen-2-yloxy)propan-2-ol] | 0.253 | 0.551 | ~10.8 mg/L (≈ 22.7 µM) | ~16.6 mg/L (≈ 35.2 µM) | –
CCc1ccc(C(=O)NN(C(=O)c2cc(C)cc(C)c2)C(C)(C)C)cc1 [tebufenozide] | – | – | – | – | 100 to 1000 µg/mL
